Like-named read-outs stand apart in the source and are kept apart here.
Columns and labels:
CAV1.2 = CAV1.2 (Homo sapiens, UniProt Q13936); assay: Ion Channel CAV1.2 Blocker; format: cell-based
NMDAR (1A/2B) [1] = target: T1, NMDAR (1A/2B) (Homo sapiens, UniProt Q05586+Q13224); assay: Ion Channel NMDAR (1A/2B) Blocker; format: cell-based; conditions: for Emax: Ion Channel NMDAR (1A/2B) Blocker, read-out: Max response
NAV1.5 = NAV1.5 (Homo sapiens, UniProt Q14524); assay: Ion Channel NAV1.5 Blocker; format: cell-based; conditions: for Emax at 30 min: Ion Channel NAV1.5 Blocker, read-out: Max response
HTR2A = HTR2A (Homo sapiens, UniProt P28223); assay: Calcium Flux HTR2A Agonist; conditions: for Emax: read-out: Max response
Method: (§2) In vitro pharmacological profiling of compounds was done against 78 functional assays for 47 common off-targets (30) by Eurofins DiscoverX Corporation (Fremont, CA, USA) using their SAFETYscan E/IC50 ELECT service (Cat Ref 87-1003DR, Safety47 Panel Dose Response). […] Compounds were tested in a range of 10 concentrations, following a 3-fold serial dilution, starting from 10 μM. The assays were performed utilizing the PathHunter enzyme fragment complementation (EFC) technology, FLIPR®-based cellular screening assays, and KINOMEscan kinase binding assays.
Prior to testing, cells (10,000 cells/well) were expanded from freezer stocks and seeded into a total volume of 50 μL into black walled, clear-bottom, Poly-D-lysine coated 384-well microplates and incubated at 37° C. […] Assays were performed in 1× dye loading buffer consisting of 1× Dye (DiscoverX, Calcium No Wash^PLUS kit, Catalog No. 90-0091), 1× Additive A and 2.5 mM Probenecid in HBSS/20 mM HEPES. Probenecid was prepared fresh. Prior to testing, media was aspirated from cells and replaced with 25 μL dye loading buffer. Cells were incubated for 45 min at 37° C. and then 20 min at RT. For agonist determination, 25 μL of 2× compound in HBSS/20 mM HEPES was added using a FLIPR Tetra (MDS). For antagonist determination, cells were pre-incubated with sample followed by agonist challenge at the EC80 concentration. 25 μL of 2× sample was added and cells were incubated for 30 min at RT in the dark to equilibrate plate temperature. After incubation, antagonist determination was initiated by addition of 25 μL of 1× compound with 3×EC80 agonist using FLIPR. For both agonist and antagonist formats, activity was measure on a FLIPR Tetra (MDS). Calcium mobilization was monitored for 2 min with a 5 sec baseline read.
FLIPR read—Area under the curve, was calculated for the entire 2 min read. Compound activity was analysed using CBIS data analysis suite (ChemInnovation, CA).

SERT = target: T2, SERT (Homo sapiens, UniProt P31645); assay: Transporter SERT Blocker; format: cell-based; conditions: for Emax: Transporter SERT Blocker, read-out: Max response
T2 construct: Eurofins DiscoverX Corporation 87-1003DR; host or cells: unnamed cell lines
Method: (§1) After cell plating and incubation, media was removed an 25 μL of 1× compound in 1×HBSS/0.1% BSA was added. Compounds were incubated with cells for 30 min at 37° C. After compound incubation, 25 μL of 1× dye loading buffer (1× dye, 1×HBSS/20 mM HEPES) was added to the wells. Cells were incubated for 30-60 min at 37° C. After incubation, microplates were transferred to a PerkinElmer Envision™ instrument for fluorescent signal detection. […] For blocker mode assays, percentage of inhibition was calculated using the following formula: […]

CNR1 [2] = target: T3, CNR1 (Homo sapiens, UniProt P21554); assay: cAMP CNR1 Antagonist; conditions: for Emax: read-out: Max response
Method: (§3) In vitro pharmacological profiling of compounds was done against 78 functional assays for 47 common off-targets (30) by Eurofins DiscoverX Corporation (Fremont, CA, USA) using their SAFETYscan E/IC50 ELECT service (Cat Ref 87-1003DR, Safety47 Panel Dose Response). […] Compounds were tested in a range of 10 concentrations, following a 3-fold serial dilution, starting from 10 μM.
cAMP Hunter cell lines were expanded from freezer stocks. Prior to testing, cells were seeded in a total volume of 20 μL into white walled 384-well microplates and incubated at 37° C. cAMP modulation was determined using the DiscoverX HitHunter cAMP XS+ assay. For Gs agonist determination, cells were incubated with sample to induce response. For Gi agonist determination, cells were incubated with sample in the presence of EC80 forskolin to induce response. For both conditions, media was aspirated from cells and replaced with 15 μL 2:1 HBSS/10 mM HEPES:cAMP XS+ Ab reagent. Intermediate dilution of sample stocks was performed to generate 4× sample in assay buffer (containing 4×EC80 forskolin in the case of antagonist determination). 5 μL of 4× sample was added to cells and incubated at 37° C. or room temperature (RT) for 30 or 60 min. Final assay vehicle concentration was 1%. For antagonist determination, cells were pre-incubated with sample followed by agonist challenge at the EC80 concentration. Media was aspirated from cells and replaced with 10 μL 1:1 HBSS/HEPES:cAMP XS+ Ab reagent. 5 μL of 4× compound was added to the cells and incubated at 37° C. or RT for 30 min. 5 μL of 4×EC80 agonist was added to the cells and incubated at 37° C. or RT for 30 or 60 min. For Gi coupled GPCRs, EC80 forskolin was included. […] Microplates were read following signal generation with a PerkinElmer Envision™ instrument for chemiluminescent signal detection. Compound activity was analyzed using CBIS data analysis suite (ChemInnovation, CA). For Gs agonist mode assays, percentage activity was calculated using the following equation:

Plasma protein binding = format: in vitro ADME; conditions: pH 7.4, human plasma
Excerpt: In vitro ADME profiling of compounds was done by Eurofins Panlabs Inc (St Charles, MO, USA) using their ADME-Tox service (Cat Ref P375, Tier 1 ADME Panel). […] (28). The atom-based log P calculation method, called OsirisP, uses as an increment system and adds contributions of every atom based on its atom type. The prediction engine distinguishes a total of 368 atom types and was optimized using a training set of more than 5000 molecules with experimentally determined log P values. The free prediction engine has proven to outperform many alternative calculation methods (29).
Human plasma, used as the protein containing matrix, was spiked with the test compound at 10 μM (final solvent concentration of 1% DMSO). The assay was performed in a 96-well format in a dialysis block (Teflon) with the dialysate compartment containing PBS (pH 7.4) and the sample side containing an equal volume of the spiked protein matrix. The plate was incubated at 37° C. for 4 h. After incubation, samples were taken from both compartments, diluted with the phosphate buffer, followed by the addition of acetonitrile and centrifugation. The supernatants were then used for HPLC-MS/MS analysis. Acebutolol, quinidine and warfarin were tested in each assay. The percentage bound to proteins and the recovery were calculated as follows: […]

OPRD1 = OPRD1 (Homo sapiens, UniProt P41143); assay: cAMP OPRD1 Agonist; conditions: for Emax: read-out: Max response
Method: as §3
(§4) cAMP Hunter cell lines were expanded from freezer stocks. Prior to testing, cells were seeded in a total volume of 20 μL into white walled 384-well microplates and incubated at 37° C. cAMP modulation was determined using the DiscoverX HitHunter cAMP XS+ assay. For Gs agonist determination, cells were incubated with sample to induce response. For Gi agonist determination, cells were incubated with sample in the presence of EC80 forskolin to induce response. For both conditions, media was aspirated from cells and replaced with 15 μL 2:1 HBSS/10 mM HEPES:cAMP XS+ Ab reagent. Intermediate dilution of sample stocks was performed to generate 4× sample in assay buffer (containing 4×EC80 forskolin in the case of antagonist determination). 5 μL of 4× sample was added to cells and incubated at 37° C. or room temperature (RT) for 30 or 60 min. Final assay vehicle concentration was 1%. For antagonist determination, cells were pre-incubated with sample followed by agonist challenge at the EC80 concentration. Media was aspirated from cells and replaced with 10 μL 1:1 HBSS/HEPES:cAMP XS+ Ab reagent. 5 μL of 4× compound was added to the cells and incubated at 37° C. or RT for 30 min. 5 μL of 4×EC80 agonist was added to the cells and incubated at 37° C. or RT for 30 or 60 min. For Gi coupled GPCRs, EC80 forskolin was included. […] Microplates were read following signal generation with a PerkinElmer Envision™ instrument for chemiluminescent signal detection. Compound activity was analyzed using CBIS data analysis suite (ChemInnovation, CA).

male NMRI mice = assay: Mouse 6-Hz (44 mA) psychomotor seizure model; format: in vivo; conditions: 30 min before stimulation; for dose-response relationship (in words): i.p.
Method: The antiseizure activity of compounds was investigated in the mouse 6-Hz (44 mA) psychomotor seizure model as described before (27). […] Seizure behaviour was video recorded and seizure durations were determined by blinded video analysis by experienced researchers, familiar with the different seizure characteristics. Data are expressed as mean±SD.
The 6-Hz 44 mA model is an acute model of pharmacoresistant focal impaired awareness seizures, previously referred to as complex partial or psychomotor seizures that are induced by a low frequency, long duration corneal electrical stimulation (6 Hz, 0.2 ms rectangular pulse width, 3 s duration, 44 mA). Seizures are typically characterized by a clonic phase and stereotypical automatic behaviours like stun, forelimb clonus, Straub tail and vibrissae twitching.

DAT = target: T4, DAT (Homo sapiens, UniProt Q01959); assay: Transporter DAT Blocker; format: cell-based; conditions: for Emax: Transporter DAT Blocker, read-out: Max response
T4 construct: Eurofins DiscoverX Corporation 87-1003DR; host or cells: unnamed cell lines
Method: as §1

NMDAR (1A/2B) [3] = target: T1, NMDAR (1A/2B); assay: Ion Channel NMDAR (1A/2B) Opener; format: cell-based; conditions: for Emax: Ion Channel NMDAR (1A/2B) Opener, read-out: Max response
HTR1A = target: T5, HTR1A (Homo sapiens, UniProt P08908); assay: cAMP HTR1A Antagonist; conditions: for Emax: read-out: Max response
T5 sequence (P08908 1-422): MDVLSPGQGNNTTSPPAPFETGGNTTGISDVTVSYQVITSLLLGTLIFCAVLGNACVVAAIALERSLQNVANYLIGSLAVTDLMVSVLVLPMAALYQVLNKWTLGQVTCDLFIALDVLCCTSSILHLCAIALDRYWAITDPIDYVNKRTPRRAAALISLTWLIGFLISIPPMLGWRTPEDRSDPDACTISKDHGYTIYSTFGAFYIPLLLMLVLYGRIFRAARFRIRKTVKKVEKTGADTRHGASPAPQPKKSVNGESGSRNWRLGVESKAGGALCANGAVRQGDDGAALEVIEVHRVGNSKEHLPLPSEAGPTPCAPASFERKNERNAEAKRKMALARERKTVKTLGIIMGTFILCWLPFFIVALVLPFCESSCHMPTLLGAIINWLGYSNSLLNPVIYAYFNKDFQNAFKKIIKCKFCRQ
Method: as §3, §4

CNR1 [4] = target: T3, CNR1; assay: cAMP CNR1 Agonist; conditions: for Emax: read-out: Max response
Method: as §2, §4

47 common off-targets = assay: Safety47 panel in vitro pharmacological profiling (overall); conditions: for potential off-targets (number): 78 functional assays, 47 off-targets, up to 10 μM
Method: The following assays were performed: (1) GPCR cAMP modulation, (2) calcium mobilization, (3) nuclear hormone receptor assays, (4) KINOMEscan binding assays, (5) ion channel assays, (6) transporter assays and (7) enzymatic assays. Compounds were tested in a range of 10 concentrations, following a 3-fold serial dilution, starting from 10 μM. The assays were performed utilizing the PathHunter enzyme fragment complementation (EFC) technology, FLIPR®-based cellular screening assays, and KINOMEscan kinase binding assays.

T4 sequence (Q01959 whole entry): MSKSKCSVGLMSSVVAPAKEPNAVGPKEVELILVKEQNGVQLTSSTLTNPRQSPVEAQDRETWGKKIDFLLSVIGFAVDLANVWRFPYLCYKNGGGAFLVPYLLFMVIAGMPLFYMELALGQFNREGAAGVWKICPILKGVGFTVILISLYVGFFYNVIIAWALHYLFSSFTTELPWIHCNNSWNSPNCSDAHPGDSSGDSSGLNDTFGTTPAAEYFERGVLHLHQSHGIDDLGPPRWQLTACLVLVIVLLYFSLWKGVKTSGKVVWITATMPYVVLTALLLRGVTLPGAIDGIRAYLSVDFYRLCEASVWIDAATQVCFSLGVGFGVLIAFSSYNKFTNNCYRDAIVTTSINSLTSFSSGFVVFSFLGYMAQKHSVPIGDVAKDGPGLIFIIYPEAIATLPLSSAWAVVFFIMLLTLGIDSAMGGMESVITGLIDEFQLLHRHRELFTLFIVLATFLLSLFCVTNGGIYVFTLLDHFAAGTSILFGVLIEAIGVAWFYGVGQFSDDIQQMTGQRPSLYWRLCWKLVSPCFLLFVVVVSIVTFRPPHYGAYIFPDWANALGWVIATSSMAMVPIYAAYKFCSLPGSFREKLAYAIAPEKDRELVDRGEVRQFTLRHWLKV
NAV1.5, sequence (Q14524 whole entry): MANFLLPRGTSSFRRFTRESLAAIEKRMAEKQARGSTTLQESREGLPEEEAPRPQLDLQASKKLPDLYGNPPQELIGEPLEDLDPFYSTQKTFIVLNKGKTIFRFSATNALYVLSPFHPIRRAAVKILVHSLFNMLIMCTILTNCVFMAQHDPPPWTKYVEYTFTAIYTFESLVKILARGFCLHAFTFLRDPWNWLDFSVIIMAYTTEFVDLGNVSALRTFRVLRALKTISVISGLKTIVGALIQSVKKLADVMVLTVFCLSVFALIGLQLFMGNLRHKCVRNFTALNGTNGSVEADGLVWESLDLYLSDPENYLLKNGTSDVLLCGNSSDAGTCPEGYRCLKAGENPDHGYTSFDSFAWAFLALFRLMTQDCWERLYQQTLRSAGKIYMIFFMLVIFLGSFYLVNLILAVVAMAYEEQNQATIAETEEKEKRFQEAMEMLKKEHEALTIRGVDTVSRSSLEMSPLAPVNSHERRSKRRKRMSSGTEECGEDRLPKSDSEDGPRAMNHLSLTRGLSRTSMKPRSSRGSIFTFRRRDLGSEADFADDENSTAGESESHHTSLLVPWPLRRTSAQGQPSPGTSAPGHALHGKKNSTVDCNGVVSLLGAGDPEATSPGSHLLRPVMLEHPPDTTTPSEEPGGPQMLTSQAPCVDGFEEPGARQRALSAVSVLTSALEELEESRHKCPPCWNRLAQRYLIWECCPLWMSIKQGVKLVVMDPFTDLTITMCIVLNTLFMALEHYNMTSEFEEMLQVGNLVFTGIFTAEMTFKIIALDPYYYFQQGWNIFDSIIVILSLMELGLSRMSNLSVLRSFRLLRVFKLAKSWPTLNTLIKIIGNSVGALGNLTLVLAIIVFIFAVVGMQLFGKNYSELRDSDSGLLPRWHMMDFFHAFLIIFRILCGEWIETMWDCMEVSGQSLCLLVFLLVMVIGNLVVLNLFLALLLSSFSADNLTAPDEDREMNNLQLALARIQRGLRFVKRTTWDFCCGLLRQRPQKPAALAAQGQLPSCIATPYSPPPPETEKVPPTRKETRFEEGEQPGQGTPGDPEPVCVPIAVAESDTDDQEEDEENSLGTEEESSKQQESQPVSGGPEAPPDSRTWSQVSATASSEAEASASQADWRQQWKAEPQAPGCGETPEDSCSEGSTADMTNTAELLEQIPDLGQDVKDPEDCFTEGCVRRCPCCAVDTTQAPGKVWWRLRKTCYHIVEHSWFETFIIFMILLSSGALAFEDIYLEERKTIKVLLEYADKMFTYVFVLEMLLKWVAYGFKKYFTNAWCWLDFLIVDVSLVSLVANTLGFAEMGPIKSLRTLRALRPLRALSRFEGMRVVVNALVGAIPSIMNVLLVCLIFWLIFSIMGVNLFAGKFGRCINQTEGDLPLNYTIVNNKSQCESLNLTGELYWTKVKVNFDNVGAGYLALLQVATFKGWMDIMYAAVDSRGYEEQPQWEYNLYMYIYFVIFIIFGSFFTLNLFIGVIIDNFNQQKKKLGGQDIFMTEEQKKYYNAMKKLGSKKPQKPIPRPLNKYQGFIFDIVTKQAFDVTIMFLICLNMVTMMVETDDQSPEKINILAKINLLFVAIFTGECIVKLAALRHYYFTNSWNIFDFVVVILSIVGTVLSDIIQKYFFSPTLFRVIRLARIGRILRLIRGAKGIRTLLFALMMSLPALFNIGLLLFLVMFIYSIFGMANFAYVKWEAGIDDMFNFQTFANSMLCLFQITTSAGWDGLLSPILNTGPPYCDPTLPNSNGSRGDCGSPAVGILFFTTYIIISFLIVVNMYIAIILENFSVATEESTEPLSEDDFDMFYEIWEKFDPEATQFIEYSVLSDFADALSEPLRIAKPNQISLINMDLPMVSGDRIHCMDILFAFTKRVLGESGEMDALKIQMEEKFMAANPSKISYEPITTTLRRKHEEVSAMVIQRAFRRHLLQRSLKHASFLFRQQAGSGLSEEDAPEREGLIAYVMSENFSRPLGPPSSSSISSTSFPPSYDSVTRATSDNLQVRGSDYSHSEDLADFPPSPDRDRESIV
T2 sequence (P31645 whole entry): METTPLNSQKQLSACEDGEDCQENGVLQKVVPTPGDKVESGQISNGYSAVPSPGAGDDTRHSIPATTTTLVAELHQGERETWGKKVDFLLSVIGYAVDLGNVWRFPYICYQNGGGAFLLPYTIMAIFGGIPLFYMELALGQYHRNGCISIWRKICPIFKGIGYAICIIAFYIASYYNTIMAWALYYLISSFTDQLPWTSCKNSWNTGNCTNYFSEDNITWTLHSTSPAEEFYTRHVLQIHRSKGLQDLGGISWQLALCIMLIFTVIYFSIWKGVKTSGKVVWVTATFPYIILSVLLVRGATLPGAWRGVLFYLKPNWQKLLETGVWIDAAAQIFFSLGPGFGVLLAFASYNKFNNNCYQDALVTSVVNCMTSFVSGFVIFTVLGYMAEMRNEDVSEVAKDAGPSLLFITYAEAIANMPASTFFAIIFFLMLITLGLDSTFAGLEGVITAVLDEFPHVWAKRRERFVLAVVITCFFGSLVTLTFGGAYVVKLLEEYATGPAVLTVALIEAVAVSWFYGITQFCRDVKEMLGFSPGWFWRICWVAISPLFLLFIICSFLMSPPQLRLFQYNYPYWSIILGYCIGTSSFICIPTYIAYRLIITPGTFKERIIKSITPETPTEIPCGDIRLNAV
OPRD1, sequence (P41143 whole entry): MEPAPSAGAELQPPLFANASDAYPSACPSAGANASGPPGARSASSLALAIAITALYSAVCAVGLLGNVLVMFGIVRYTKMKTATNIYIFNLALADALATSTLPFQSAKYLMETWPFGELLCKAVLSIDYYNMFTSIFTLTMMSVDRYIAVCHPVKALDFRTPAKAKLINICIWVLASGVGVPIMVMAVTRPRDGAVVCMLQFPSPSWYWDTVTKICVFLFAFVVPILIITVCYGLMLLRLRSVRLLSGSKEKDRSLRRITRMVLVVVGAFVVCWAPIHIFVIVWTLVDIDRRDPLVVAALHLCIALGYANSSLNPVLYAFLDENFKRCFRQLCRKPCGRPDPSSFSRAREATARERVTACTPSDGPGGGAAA
T3 sequence (P21554 whole entry): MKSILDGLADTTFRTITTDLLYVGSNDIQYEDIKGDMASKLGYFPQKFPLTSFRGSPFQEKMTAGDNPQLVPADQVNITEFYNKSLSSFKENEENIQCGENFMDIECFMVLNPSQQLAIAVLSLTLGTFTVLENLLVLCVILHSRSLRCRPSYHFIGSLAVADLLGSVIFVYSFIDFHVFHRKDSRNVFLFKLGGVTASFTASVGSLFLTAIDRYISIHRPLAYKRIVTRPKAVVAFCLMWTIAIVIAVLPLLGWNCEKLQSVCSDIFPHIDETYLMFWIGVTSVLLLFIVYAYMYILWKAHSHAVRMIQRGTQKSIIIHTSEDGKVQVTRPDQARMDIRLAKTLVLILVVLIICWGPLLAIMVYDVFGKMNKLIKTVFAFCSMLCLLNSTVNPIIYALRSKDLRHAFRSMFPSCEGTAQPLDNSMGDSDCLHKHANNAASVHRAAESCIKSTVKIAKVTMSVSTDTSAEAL
HTR2A, sequence (P28223 whole entry): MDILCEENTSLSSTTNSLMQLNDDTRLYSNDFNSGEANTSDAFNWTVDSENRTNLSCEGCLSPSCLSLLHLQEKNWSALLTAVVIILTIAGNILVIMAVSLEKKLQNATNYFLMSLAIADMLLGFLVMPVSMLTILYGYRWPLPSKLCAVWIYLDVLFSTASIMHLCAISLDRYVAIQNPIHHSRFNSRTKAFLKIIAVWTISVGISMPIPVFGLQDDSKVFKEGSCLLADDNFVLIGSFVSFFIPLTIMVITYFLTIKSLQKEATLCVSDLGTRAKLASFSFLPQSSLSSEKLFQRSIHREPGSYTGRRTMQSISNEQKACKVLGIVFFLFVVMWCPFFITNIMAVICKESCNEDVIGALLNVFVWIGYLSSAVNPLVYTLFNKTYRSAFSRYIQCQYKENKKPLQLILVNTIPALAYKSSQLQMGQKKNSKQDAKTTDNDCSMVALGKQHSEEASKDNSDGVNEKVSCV

Structure (SMILES) | IC50 (CAV1.2) | IC50 (NMDAR (1A/2B) [1]) | Emax (NMDAR (1A/2B) [1]) | IC50 (NAV1.5) | Emax at 30 min (NAV1.5) | EC50 (HTR2A) | Emax (HTR2A) | IC50 (SERT) | Emax (SERT) | IC50 (CNR1 [2]) | Emax (CNR1 [2]) | fraction unbound at 4 h, 10 μM (Plasma protein binding) | EC50 (OPRD1) | Emax (OPRD1) | mean seizure duration (male NMRI mice; 30 mg/kg i.p.) | mean seizure duration (male NMRI mice; 100 mg/kg i.p.) | mean seizure duration (male NMRI mice; 200 mg/kg i.p.) | mean seizure duration (male NMRI mice; 300 mg/kg i.p.) | mean seizure duration (male NMRI mice; 600 mg/kg i.p.) | dose-response relationship (in words) (male NMRI mice) | other results
Clc1cccc(C#Cc2n[nH]c3ncccc23)c1 [Compound 10.1, 3-((3-chlorophenyl)ethynyl)-1H-pyrazolo[3,4-b]pyridine] | > 10 µM | > 10 µM | 0% | > 10 µM | 21.5% | > 10 µM | 0% | > 10 µM | 0% | > 10 µM | 0% | 0.0035 | > 10 µM | 12.1% | 5.5 s | 6.0 s | 8.5 s | 3.0 s | 0.8 s | displayed a dose-response relationship | Emax at 30 min (CAV1.2): 0%; mean seizure duration (male NMRI mice; 10 mg/kg i.p.): 6.2 s; mean seizure duration (male NMRI mice; 400 mg/kg i.p.): 1.2 s; IC50 (DAT): > 10 µM; Emax (DAT): 33.1%; EC50 (NMDAR (1A/2B) [3]): > 10 µM; Emax (NMDAR (1A/2B) [3]): 0%; IC50 (HTR1A): > 10 µM; Emax (HTR1A): 0%; EC50 (CNR1 [4]): > 10 µM; Emax (CNR1 [4]): 20.1%; potential off-targets (number) (47 common off-targets): none
CC(C)(C)c1ccc(C#CC(O)c2ccccc2)cc1 (racemic) [Compound 3.3, rac-3-(4-(tert-butyl)phenyl)-1-phenylprop-2-yn-1-ol] | > 10 µM | > 10 µM | 0% | > 10 µM | 59.9% | > 10 µM | 0% | > 10 µM | 0% | > 10 µM | 17.5% | 0.002 | > 10 µM | 3.6% | 9.5 s | 7.7 s | 1.1 s | 0 s | 1.00 s | displayed a dose-response relationship | Emax at 30 min (CAV1.2; Ion Channel CAV1.2 Blocker, read-out: Max response): 7.2%; IC50 (DAT): > 10 µM; Emax (DAT): 0%; EC50 (NMDAR (1A/2B) [3]): > 10 µM; Emax (NMDAR (1A/2B) [3]): 0%; IC50 (HTR1A): > 10 µM; Emax (HTR1A): 47.2%; EC50 (CNR1 [4]): > 10 µM; Emax (CNR1 [4]): 9.8%; potential off-targets (number) (47 common off-targets): 4; IC50 (47 common off-targets; read-out: IC50 values at the potential off-targets, CHRM2, DRD2S, HTR1B, nAChR a4/b2): 4 to 8 µM
